Results from patent publication US9265253B2, “Use of macrocyclic picolinamides as fungicides” (DOW AGROSCIENCES LLC, priority 2013, dated 2016).

These compounds were tested on Alternaria solani (assay: Tomato Early Blight (ALTESO) disease control). Settings: Alternaria solani, topical, 24 h, 1 Day Protectant, read-out: Disease Control ALTESO 1 DP.
Type: in vivo
Experimental: Technical grades of materials were dissolved in acetone, which were then mixed with nine volumes of water containing 110 ppm Triton X-100. The fungicide solutions were applied onto wheat seedlings using an automated booth sprayer to run-off. All sprayed plants were allowed to air dry prior to further handling. All fungicides were evaluated using the aforementioned method for their activity vs. all target diseases. Wheat leaf blotch and brown rust activity were also evaluated using track spray applications, in which case the fungicides were formulated as EC formulations, containing 0.1% Trycol 5941 in the spray solutions. Wheat plants (variety Yuma) were grown from seed in a greenhouse in 50% mineral soil/50% soil-less Metro mix until the first leaf was fully emerged, with 7-10 seedlings per pot. These plants were inoculated with an aqueous spore suspension of Septoria tritici either prior to or after fungicide treatments. After inoculation the plants were kept in 100% relative humidity (one day in a dark dew chamber followed by two to three days in a lighted dew chamber at 20° C.) to permit spores to germinate and infect the leaf. The plants were then transferred to a greenhouse set at 20° C. for disease to develop. When disease symptoms were fully expressed on the 1st leaves of untreated plants, infection levels were assessed on a scale of 0 to 100 percent disease severity. Percent disease control was calculated using the ratio of disease severity on treated plants relative to untreated plants. Tomato plants (variety Outdoor girl) were propagated in soil-less Metro mix, with each pot having one plant, and used when 12 to 14 days old. Test plants were inoculated with an aqueous spore suspension of Alternaria solani 24 hr after fungicide treatments. After inoculation the plants were kept in 100% relative humidity (one day in a dark dew chamber followed by two to three days in a lighted dew chamber at 20° C.) to permit spores to germinate and infect the leaf. The plants were then transferred to a growth room at 22° C. for disease to develop. Fungicide formulation, application and disease assessment on the sprayed leaves followed the procedures as described in the Example A.
For COCC[C@H]1CCC[C@H](NC(=O)c2nccc(OC)c2OCOC(C)=O)C(=O)O[C@@H](C)[C@@H]1Oc1ccccc1 [Compound F130], the pest or weed control at 100 ppm was 0 to 80%. Work on COc1ccnc(C(=O)N[C@H]2CCC[C@H](Cc3ccc(F)cc3F)[C@@H](OC(=O)c3ccco3)[C@H](C)OC2=O)c1OCOC(=O)C(C)C [Compound F157] yielded a pest or weed control at 100 ppm of 80 to 100%. Work on CCCO[C@@H]1[C@@H](CCC(C)C)CCC[C@H](NC(=O)c2nccc(OC)c2OCOC(=O)COCC)C(=O)O[C@H]1C [Compound F161] yielded a pest or weed control at 100 ppm of 80 to 100%.

What follows are compounds tested on Venturia inaequalis (assay: Apple Scab (VENTIN) disease control). Settings: Venturia inaequalis, topical, 24 h, 1 Day Protectant, read-out: Disease Control VENTIN 1 DP.
Type: in vivo
Experimental: Technical grades of materials were dissolved in acetone, which were then mixed with nine volumes of water containing 110 ppm Triton X-100. The fungicide solutions were applied onto wheat seedlings using an automated booth sprayer to run-off. All sprayed plants were allowed to air dry prior to further handling. All fungicides were evaluated using the aforementioned method for their activity vs. all target diseases. Wheat leaf blotch and brown rust activity were also evaluated using track spray applications, in which case the fungicides were formulated as EC formulations, containing 0.1% Trycol 5941 in the spray solutions. Wheat plants (variety Yuma) were grown from seed in a greenhouse in 50% mineral soil/50% soil-less Metro mix until the first leaf was fully emerged, with 7-10 seedlings per pot. These plants were inoculated with an aqueous spore suspension of Septoria tritici either prior to or after fungicide treatments. After inoculation the plants were kept in 100% relative humidity (one day in a dark dew chamber followed by two to three days in a lighted dew chamber at 20° C.) to permit spores to germinate and infect the leaf. The plants were then transferred to a greenhouse set at 20° C. for disease to develop. When disease symptoms were fully expressed on the 1st leaves of untreated plants, infection levels were assessed on a scale of 0 to 100 percent disease severity. Percent disease control was calculated using the ratio of disease severity on treated plants relative to untreated plants. Apple seedlings (variety McIntosh) were grown in soil-less Metro mix, with one plant per pot. Seedlings with two expanding young leaves at the top (older leaves at bottom of the plants were trimmed) were used in the test. Plants were inoculated with a spore suspension of Venturia inaequalis 24 hr after fungicide treatment and kept in a 22° C. dew chamber with 100% RH for 48 hr, and then moved to a greenhouse set at 20° C. for disease to develop. Fungicide formulation, application and disease assessment on the sprayed leaves followed the procedures as described in the Example A.
Work on COCC[C@H]1CCC[C@H](NC(=O)c2nccc(OC)c2OCOC(C)=O)C(=O)O[C@@H](C)[C@@H]1Oc1ccccc1 [Compound F130] yielded a pest or weed control at 100 ppm of 0 to 80%. With COc1ccnc(C(=O)N[C@H]2CCC[C@H](Cc3ccc(F)cc3F)[C@@H](OC(=O)c3ccco3)[C@H](C)OC2=O)c1OCOC(=O)C(C)C [Compound F157] the pest or weed control at 100 ppm was 0 to 80%. CCCO[C@@H]1[C@@H](CCC(C)C)CCC[C@H](NC(=O)c2nccc(OC)c2OCOC(=O)COCC)C(=O)O[C@H]1C [Compound F161] showed a pest or weed control at 100 ppm of 80 to 100%.

Each compound was assayed on Puccinia triticina; Synonym: Puccinia recondite f. Sp. Tritici (assay: Wheat Brown Rust (PUCCRT) disease control). Settings: Puccinia triticina, topical, 24 h, 1 Day Protectant, rate 100 ppm; read-out: PUCCRT 1 DP disease control.
Type: in vivo
Method in brief: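 Brown rust on first-leaf Yuma wheat: spore inoculation before or after spray application (acetone/Triton X-100 solution, or EC with Trycol in track spray), overnight 100% RH at 22 °C, disease developed at 24 °C. Severity scored 0–100% and converted to percent control against untreated.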
COCC[C@H]1CCC[C@H](NC(=O)c2nccc(OC)c2OCOC(C)=O)C(=O)O[C@@H](C)[C@@H]1Oc1ccccc1 [Compound F130] showed a pest or weed control at 100 ppm of 80 to 100%. Compound CCCO[C@@H]1[C@@H](CCC(C)C)CCC[C@H](NC(=O)c2nccc(OC)c2OCOC(=O)COCC)C(=O)O[C@H]1C [Compound F161] has a pest or weed control at 100 ppm of 80 to 100%.

Same assay, conditions: Puccinia triticina, topical, 24 h, 1 Day Protectant, rate 121.5 g/H; read-out: PUCCRT 1 DP disease control
COCC[C@H]1CCC[C@H](NC(=O)c2nccc(OC)c2OCOC(C)=O)C(=O)O[C@@H](C)[C@@H]1Oc1ccccc1 [Compound F130] was tested, and the pest or weed control at 121.5 g/ha was 80 to 100%. Work on COc1ccnc(C(=O)N[C@H]2CCC[C@H](Cc3ccc(F)cc3F)[C@@H](OC(=O)c3ccco3)[C@H](C)OC2=O)c1OCOC(=O)C(C)C [Compound F157] yielded a pest or weed control at 121.5 g/ha of 80 to 100%. Work on CCCO[C@@H]1[C@@H](CCC(C)C)CCC[C@H](NC(=O)c2nccc(OC)c2OCOC(=O)COCC)C(=O)O[C@H]1C [Compound F161] yielded a pest or weed control at 121.5 g/ha of 80 to 100%.

Same assay, conditions: Puccinia triticina, topical, 72 h, 3 Day Curative, rate 100 ppm; read-out: PUCCRT 3 DC disease control
With COCC[C@H]1CCC[C@H](NC(=O)c2nccc(OC)c2OCOC(C)=O)C(=O)O[C@@H](C)[C@@H]1Oc1ccccc1 [Compound F130] the pest or weed control at 100 ppm was 80 to 100%. Compound CCCO[C@@H]1[C@@H](CCC(C)C)CCC[C@H](NC(=O)c2nccc(OC)c2OCOC(=O)COCC)C(=O)O[C@H]1C [Compound F161] has a pest or weed control at 100 ppm of 80 to 100%.

Same assay, conditions: Puccinia triticina, topical, 72 h, 3 Day Curative, rate 121.5 g/H; read-out: PUCCRT 3 DC disease control
For COCC[C@H]1CCC[C@H](NC(=O)c2nccc(OC)c2OCOC(C)=O)C(=O)O[C@@H](C)[C@@H]1Oc1ccccc1 [Compound F130], the pest or weed control at 121.5 g/ha was 80 to 100%. For COc1ccnc(C(=O)N[C@H]2CCC[C@H](Cc3ccc(F)cc3F)[C@@H](OC(=O)c3ccco3)[C@H](C)OC2=O)c1OCOC(=O)C(C)C [Compound F157], the pest or weed control at 121.5 g/ha was 0 to 80%. CCCO[C@@H]1[C@@H](CCC(C)C)CCC[C@H](NC(=O)c2nccc(OC)c2OCOC(=O)COCC)C(=O)O[C@H]1C [Compound F161] gave a pest or weed control at 121.5 g/ha of 80 to 100%.

The compounds below were run on Mycosphaerella graminicola; Anamorph: Septoria tritici (assay: Leaf Blotch of Wheat (SEPTTR) disease control). Settings: Zymoseptoria tritici, 24 h, 1 Day Protectant, rate 100 ppm; read-out: SEPTTR 1 DP disease control.
Type: in vivo
Method in brief: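 Protective or curative format: Septoria tritici inoculation either preceded or followed fungicide application to first-leaf Yuma wheat. Severity scored 0–100%; control expressed versus untreated.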
Work on COCC[C@H]1CCC[C@H](NC(=O)c2nccc(OC)c2OCOC(C)=O)C(=O)O[C@@H](C)[C@@H]1Oc1ccccc1 [Compound F130] yielded a pest or weed control at 100 ppm of 80 to 100%. With CCCO[C@@H]1[C@@H](CCC(C)C)CCC[C@H](NC(=O)c2nccc(OC)c2OCOC(=O)COCC)C(=O)O[C@H]1C [Compound F161] the pest or weed control at 100 ppm was 80 to 100%.

Same assay, conditions: Zymoseptoria tritici, 24 h, 1 Day Protectant, rate 121.5 g/H; read-out: SEPTTR 1 DP disease control
Compound COCC[C@H]1CCC[C@H](NC(=O)c2nccc(OC)c2OCOC(C)=O)C(=O)O[C@@H](C)[C@@H]1Oc1ccccc1 [Compound F130] has a pest or weed control at 121.5 g/ha of 80 to 100%. COc1ccnc(C(=O)N[C@H]2CCC[C@H](Cc3ccc(F)cc3F)[C@@H](OC(=O)c3ccco3)[C@H](C)OC2=O)c1OCOC(=O)C(C)C [Compound F157] showed a pest or weed control at 121.5 g/ha of 80 to 100%. CCCO[C@@H]1[C@@H](CCC(C)C)CCC[C@H](NC(=O)c2nccc(OC)c2OCOC(=O)COCC)C(=O)O[C@H]1C [Compound F161] showed a pest or weed control at 121.5 g/ha of 80 to 100%.

Same assay, conditions: Zymoseptoria tritici, 72 h, 3 Day Curative, rate 100 ppm; read-out: SEPTTR 3 DC disease control
In the case of COCC[C@H]1CCC[C@H](NC(=O)c2nccc(OC)c2OCOC(C)=O)C(=O)O[C@@H](C)[C@@H]1Oc1ccccc1 [Compound F130], the pest or weed control at 100 ppm is reported as 0 to 80%. CCCO[C@@H]1[C@@H](CCC(C)C)CCC[C@H](NC(=O)c2nccc(OC)c2OCOC(=O)COCC)C(=O)O[C@H]1C [Compound F161] was tested, and the pest or weed control at 100 ppm was 80 to 100%.

Same assay, conditions: Zymoseptoria tritici, 72 h, 3 Day Curative, rate 121.5 g/H; read-out: SEPTTR 3 DC disease control
COCC[C@H]1CCC[C@H](NC(=O)c2nccc(OC)c2OCOC(C)=O)C(=O)O[C@@H](C)[C@@H]1Oc1ccccc1 [Compound F130] showed a pest or weed control at 121.5 g/ha of 80 to 100%. CCCO[C@@H]1[C@@H](CCC(C)C)CCC[C@H](NC(=O)c2nccc(OC)c2OCOC(=O)COCC)C(=O)O[C@H]1C [Compound F161] was tested, and the pest or weed control at 121.5 g/ha was 80 to 100%.
